Here are results for 21 compounds from BindingDB's records for doi:10.1111/j.1747-0285.2009.00909.x (Queen's University, 2010).

The target of one assay is T1, Heme oxygenase 1 (Rattus norvegicus, UniProt P06762).
T1 sequence (P06762 whole entry): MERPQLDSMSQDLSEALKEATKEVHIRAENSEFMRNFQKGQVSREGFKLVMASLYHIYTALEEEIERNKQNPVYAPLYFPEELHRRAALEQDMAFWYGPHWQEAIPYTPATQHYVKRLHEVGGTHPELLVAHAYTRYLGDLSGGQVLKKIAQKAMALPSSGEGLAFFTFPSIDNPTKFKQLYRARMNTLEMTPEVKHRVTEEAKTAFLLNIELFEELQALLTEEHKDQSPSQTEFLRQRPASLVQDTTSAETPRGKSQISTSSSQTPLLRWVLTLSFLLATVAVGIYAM
Kind of assay: Heme Oxygenase. Conditions: pH 7.4; 25 °C. As to the method: (§1) Heme oxygenase activity in rat spleen and brain microsomal fractions was determined by the quantitation of CO formed from the degradation of methemalbumin (heme complexed with albumin). Spleen and brain (SpragueâDawley rats) microsomal fractions were prepared according to the procedure outlined by Appletonet al. Protein concentration of microsomal fractions was determined by a modification of the Biuret method. Incubations for HO activity analysis were performed under conditions for which the rate of CO formation [pmol CO â (min mg protein)] was linear with respect to time and microsomal protein concentration. […] […]

The target of the next assay is T2, Heme oxygenase 2 (Rattus norvegicus, UniProt P23711).
T2 sequence (P23711 whole entry): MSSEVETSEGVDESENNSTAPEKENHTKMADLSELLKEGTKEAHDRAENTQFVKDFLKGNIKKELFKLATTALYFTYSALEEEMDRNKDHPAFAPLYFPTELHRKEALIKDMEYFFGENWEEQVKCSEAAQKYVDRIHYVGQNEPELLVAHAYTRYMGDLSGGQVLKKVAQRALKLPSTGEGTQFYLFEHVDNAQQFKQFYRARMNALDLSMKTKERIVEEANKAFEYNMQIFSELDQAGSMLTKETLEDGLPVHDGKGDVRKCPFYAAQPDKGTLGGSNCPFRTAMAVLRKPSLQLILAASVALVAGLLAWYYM
Kind of assay: Heme Oxygenase. Conditions: pH 7.4; 25 °C. The procedure: as §1

“And” between values parts separate entries of the source, which are not always exact repeats. Equal values may be shown once.

As usually defined, the IC50 is the midpoint of a concentration-inhibition curve. In the case of `O=C(CCc1ccccc1)Cn1cnc(N(O)O)c1` [1-azolyl-4-phenyl-2-butanone, 26], the half-maximal inhibitory concentration (IC50) on Heme oxygenase 1 and against Heme oxygenase 2 was over 100 µM each time. As for `CSc1ncn(CC(=O)CCc2ccccc2)n1` [1-azolyl-4-phenyl-2-butanone, 31], the IC50 on Heme oxygenase 1 and against Heme oxygenase 2 was over 100 µM throughout. Take `CSc1ncnn1CC(=O)CCc1ccccc1` [1-azolyl-4-phenyl-2-butanone, 35]: the IC50 at Heme oxygenase 1 and against Heme oxygenase 2 was over 100 µM each time. Consider `O=C(CCc1ccccc1)Cn1nc2ccccc2n1` [1-azolyl-4-phenyl-2-butanone, 14], for which the IC50 at Heme oxygenase 1 and at Heme oxygenase 2 was over 100 µM each time.

`O=C(CCc1ccccc1)Cn1cnc(Br)c1` [1-azolyl-4-phenyl-2-butanone, 25]: the IC50 against Heme oxygenase 1 and on Heme oxygenase 2 was over 100 µM in each case. Take `O=C(CCc1ccccc1)Cn1ccnc1-c1ccccc1` [1-azolyl-4-phenyl-2-butanone, 16]: the IC50 against Heme oxygenase 1 and against Heme oxygenase 2 was over 100 µM each time.

Consider `O=C(CCc1ccccc1)Cn1cnc(N(O)O)n1` [1-azolyl-4-phenyl-2-butanone, 32], for which the IC50 on Heme oxygenase 1 and at Heme oxygenase 2 was over 100 µM throughout. At Heme oxygenase 1, `OC(CCc1ccccc1)Cn1ccnc1` (stereo not drawn) displayed a half-inhibitory concentration (IC50) of 6 µM. For the compound `O=C(CCc1ccccc1)Cn1ccnn1` [1-azolyl-4-phenyl-2-butanone, 8], the results for the concentration for half-maximal inhibition (IC50) at Heme oxygenase 1 and against Heme oxygenase 2 were 89 µM and over 100 µM, respectively. Taken in the same sequence, the figures for `O=C(CCc1ccccc1)Cn1nc(Br)nc1Br` [1-azolyl-4-phenyl-2-butanone, 36] were over 100 µM and over 100 µM.

As to `O=C(CCc1ccccc1)Cn1nccn1` [1-azolyl-4-phenyl-2-butanone, 9], the concentration for half-maximal inhibition (IC50) on Heme oxygenase 1 and against Heme oxygenase 2 was over 100 µM throughout. For the compound `CSc1nnn(CC(=O)CCc2ccccc2)n1` [1-azolyl-4-phenyl-2-butanone, 41], the IC50 against Heme oxygenase 1 and at Heme oxygenase 2 was over 100 µM each time. For the compound `O=C(CCc1ccccc1)Cn1cnc(-c2ccccc2)c1` [1-azolyl-4-phenyl-2-butanone, 24], the IC50 on Heme oxygenase 2 was over 100 µM. With `O=C(CCc1ccccc1)Cn1nnnc1-c1ccccc1` [1-azolyl-4-phenyl-2-butanone, 40], the IC50 against Heme oxygenase 1 and on Heme oxygenase 2 was over 100 µM each time. With `O=C(CCc1ccccc1)Cn1ncnn1` [1-azolyl-4-phenyl-2-butanone, 11], the IC50 at Heme oxygenase 2 is 30 µM and > 100 µM. As to `O=C(CCc1ccccc1)Cn1cnc(Cl)c1Cl` [1-azolyl-4-phenyl-2-butanone, 20], the IC50 on Heme oxygenase 1 and on Heme oxygenase 2 was over 100 µM each time. Turning to `CSc1nnnn1CC(=O)CCc1ccccc1` [1-azolyl-4-phenyl-2-butanone, 38], the IC50 on Heme oxygenase 1 and against Heme oxygenase 2 was over 100 µM each time. Turning to `Cc1nccn1CC(=O)CCc1ccccc1` [1-azolyl-4-phenyl-2-butanone, 15], the IC50 against Heme oxygenase 1 and on Heme oxygenase 2 was over 100 µM in each case. On to `COOSc1ncnn1CC(=O)CCc1ccccc1` [1-azolyl-4-phenyl-2-butanone, 46], for which the IC50 on Heme oxygenase 1 and on Heme oxygenase 2 was over 100 µM in each case. Regarding `O=C(CCc1ccccc1)Cn1cccn1` [1-azolyl-4-phenyl-2-butanone, 5], the IC50 on Heme oxygenase 1 and against Heme oxygenase 2 was over 100 µM in each case. `O=C(CCc1ccccc1)Cn1cnc(-c2ccccc2)c1-c1ccccc1` [1-azolyl-4-phenyl-2-butanone, 21] registered an IC50 at Heme oxygenase 2 of over 100 µM.
